From ChEMBL document CHEMBL5500360, “Discovery of N-(4-((6-(3,5- Dimethoxyphenyl)-9H-purine derivatives as irreversible covalent FGFR inhibitors” (Eur J Med Chem, 2024)

Assays:
[1] = Toxicity in BALB/c athymic nude mouse xenografted with human MDA-MB-231 cells assessed as effect on kidney at 10 to 30 mg/kg, po administered once a day via gavage for 21 days by H and E staining based analysis; format: organism-based; settings: in vivo, 504 h, dose 10-30 mg/kg, time 21 day
[2] = Metabolic stability in rat liver microsomes assessed as parent compound remaining at 1 uM measured after 15 mins by LC-MS/MS analysis; format: ADME, Microsome; settings: read-out: Stability
MDA-MB-231 [3] = assay: cells; settings: Homo sapiens, MDA-MB-231, 72 h
MDA-MB-231 [4] = assay: Antitumor activity against human MDA-MB-231 cells xenografted in female BALB/c athymic nude mouse assessed as tumor growth inhibition at 10 mg/kg, po administered once a day via gavage for 21 days relative to control; format: functional; settings: MDA-MB-231, 504 h, time 21 day, read-out: TGI
MDA-MB-231 [5] = assay: Induction of apoptosis in human MDA-MB-231 cells assessed as late apoptotic cells at 5 uM incubated for 24 hrs by Annexin V-FITC/PI staining based flow cytometric analysis (reference value: 0.161 %); format: functional
[6] = Metabolic stability in human liver microsomes assessed as parent compound remaining at 1 uM measured after 45 mins by LC-MS/MS analysis; format: ADME, Microsome; settings: read-out: Stability
[7] = Toxicity in BALB/c athymic nude mouse xenografted with human MDA-MB-231 cells assessed as effect on spleen at 10 to 30 mg/kg, po administered once a day via gavage for 21 days by H and E staining based analysis; format: organism-based; settings: in vivo, 504 h, dose 10-30 mg/kg, time 21 day
MDA-MB-231 [8] = assay: Cell cycle arrest in human MDA-MB-231 cells assessed as accumulation of S phase cells at 5 uM incubated for 24 hrs by […]PI staining based flow cytometric analysis (reference value: 41.29%); format: functional
MDA-MB-435 = assay: cells; settings: Homo sapiens, MDA-MB-435, 72 h
Description: Antiproliferative activity against human MDA-MB-435 cells assessed as inhibition of cell growth incubated for 72 hrs by MTT assay

[9] = Metabolic stability in mouse liver microsomes assessed as parent compound remaining at 1 uM measured after 30 mins by LC-MS/MS analysis; format: ADME, Microsome; settings: read-out: Stability
[10] = Metabolic stability in rat liver microsomes assessed as parent compound remaining at 1 uM measured after 30 mins by LC-MS/MS analysis; format: ADME, Microsome; settings: read-out: Stability
[11] = Metabolic stability in rat liver microsomes assessed as parent compound remaining at 1 uM measured after 45 mins by LC-MS/MS analysis; format: ADME, Microsome; settings: read-out: Stability
[12] = Metabolic stability in human liver microsomes assessed as parent compound remaining at 1 uM measured after 5 mins by LC-MS/MS analysis; format: ADME, Microsome; settings: read-out: Stability
[13] = Metabolic stability in rat liver microsomes assessed as parent compound remaining at 1 uM measured after 5 mins by LC-MS/MS analysis; format: ADME, Microsome; settings: read-out: Stability
MDA-MB-231 [14] = assay: Induction of apoptosis in human MDA-MB-231 cells assessed as inhibition of total PARP protein expression incubated for 24 hrs by Western blot analysis; format: functional, cell-based; settings: dose 2.5-10 µM
MDA-MB-231 [15] = assay: Induction of apoptosis in human MDA-MB-231 cells assessed as apoptotic cells at 5 uM incubated for 24 hrs by Annexin V-FITC/PI staining based flow cytometric analysis relative to control; format: functional
MDA-MB-231 [16] = assay: Induction of apoptosis in human MDA-MB-231 cells assessed as necrotic cells at 5 uM incubated for 24 hrs by Annexin V-FITC/PI staining based flow cytometric analysis (reference value: 0.063 %); format: functional
MDA-MB-231 [17] = assay: Induction of apoptosis in human MDA-MB-231 cells assessed as increase in Bax protein expression incubated for 24 hrs by Western blot analysis; format: functional, cell-based; settings: dose 2.5-10 µM
MDA-MB-231 [18] = assay: Induction of apoptosis in human MDA-MB-231 cells assessed as early apoptotic cells at 10 uM incubated for 24 hrs by Annexin V-FITC/PI staining based flow cytometric analysis (reference value: 0.131 %); format: functional
MDA-MB-231 [19] = assay: Induction of apoptosis in human MDA-MB-231 cells assessed as viable cells at 2.5 uM incubated for 24 hrs by Annexin V-FITC/PI staining based flow cytometric analysis (reference value: 99.645%); format: functional; settings: read-out: Activity
MDA-MB-231 [20] = assay: Cell cycle arrest in human MDA-MB-231 cells assessed as accumulation of G0-G1 phase cells at 5 uM incubated for 24 hrs by […]PI staining based flow cytometric analysis (reference value: 41.83%); format: functional
Cell membrane = assay: Induction of mitochondrial membrane potential loss in human MDA-MB-231 cells assessed as increase in JC-1 monomer by measuring green fluorescence incubated for 12 hrs by confocal microscopic analysis; format: cell membranes; settings: dose 2.5-10 µM
[21] = Toxicity in BALB/c athymic nude mouse xenografted with human MDA-MB-231 cells assessed as effect on heart at 10 to 30 mg/kg, po administered once a day via gavage for 21 days by H and E staining based analysis; format: organism-based; settings: in vivo, 504 h, dose 10-30 mg/kg, time 21 day
KYSE-150 cell line = assay: cells; settings: Homo sapiens, KYSE-150, 72 h
Description: Antiproliferative activity against human KYSE-150 cells assessed as inhibition of cell growth incubated for 72 hrs by MTT assay

MDA-MB-231 [22] = assay: Cell cycle arrest in human MDA-MB-231 cells assessed as accumulation of G2-M phase cells at 10 uM incubated for 24 hrs by […]PI staining based flow cytometric analysis (reference value: 16.88%); format: functional
MDA-MB-231 [23] = assay: Induction of apoptosis in human MDA-MB-231 cells assessed as viable cells at 10 uM incubated for 24 hrs by Annexin V-FITC/PI staining based flow cytometric analysis (reference value: 99.645%); format: functional; settings: read-out: Activity
[24] = Metabolic stability in mouse liver microsomes assessed as intrinsic clearance at 1 uM incubated for 45 mins by LC-MS/MS analysis; format: ADME, Microsome; settings: read-out: CLH
MDA-MB-231 [25] = assay: Cell cycle arrest in human MDA-MB-231 cells assessed as accumulation of G0-G1 phase cells at 2.5 uM incubated for 24 hrs by […]PI staining based flow cytometric analysis (reference value: 41.83%); format: functional
MDA-MB-231 [26] = assay: Induction of apoptosis in human MDA-MB-231 cells assessed as early apoptotic cells at 5 uM incubated for 24 hrs by Annexin V-FITC/PI staining based flow cytometric analysis (reference value: 0.131 %); format: functional
MDA-MB-231 [27] = assay: Induction of ROS production in human MDA-MB-231 cells incubated for 12 hrs by flow cytometry based confocal microscopic analysis; format: functional, cell-based; settings: dose 2.5-10 µM

remaining at 0.25 h, 1 µM [2]: 40%
IC50 (MDA-MB-231 [3]): 1890 nM
remaining at 0.75 h, 1 µM [6]: 33.8%
IC50 (MDA-MB-435): 9170 nM
remaining at 0.5 h, 1 µM [9]: 8.63%
remaining at 0.5 h, 1 µM [10]: 18.6%
remaining at 0.75 h, 1 µM [11]: 9.41%
remaining at 5 min, 1 µM [12]: 85%
remaining at 5 min, 1 µM [13]: 73.4%
Activity (Cell membrane): Dose-Dependent Effect
IC50 (KYSE-150 cell line): 1930 nM
CLint scaled at 1 µM [24]: 424 mL/min/kg
Structure (SMILES): C=CC(=O)Nc1ccc(Cn2cnc3c(-c4cc(OC)cc(OC)c4)ncnc32)cc1
Activity [1]: Non-Toxic
inhibition in vivo at 10 mg/kg (MDA-MB-231 [4]): 40.2%
Activity (MDA-MB-231 [5]): 14.25%
Activity [7]: Non-Toxic
Activity (MDA-MB-231 [8]): 22.82%
Activity (MDA-MB-231 [14]): Dose-Dependent Effect
Activity (MDA-MB-231 [15]): 45.4%
Activity (MDA-MB-231 [16]): 3.01%
Activity (MDA-MB-231 [17]): Dose-Dependent Effect
Activity (MDA-MB-231 [18]): 45.4%
viability at 2.5 µM (MDA-MB-231 [19]): 64.9%
Activity (MDA-MB-231 [20]): 66.5%
Activity [21]: Non-Toxic
Activity (MDA-MB-231 [22]): 15.49%
viability at 10 µM (MDA-MB-231 [23]): 37.2%
Activity (MDA-MB-231 [25]): 50.81%
Activity (MDA-MB-231 [26]): 34.92%
Activity (MDA-MB-231 [27]): Dose-Dependent Effect
